A short description of data set [1]: Measuring spectral characteristics (absorption and emission maxima, extinction coefficients). In kind it is physicochemical. The method, then:
(§1) To measure spectral characteristics of some compounds with the formula I weighted portions of compounds p-NH2-BDI-BF2, p-dimethylamino-BDI-BF2, p-diethylamino-BDI-BF2, p-HOBDI-BF2, di-F-p-HOBDI-BF2, p-diethylamino-BDI-dimethylaminoethenyl-BF2 and p-HOBDI-dimethylaminoethenyl-BF2 were dissolved in water, ethanol and acetonitrile. Absorption spectra were measured on Varian Cary 100 Bio spectrophotometer, fluorescence spectra were measured on Varian Cary Eclipse scanning spectrofluorometer.
The values of absorption and emission maxima and molar extinction coefficients for examples of compounds with the formula I in the indicated solvents are listed in a Table 2. Emission peaks of the investigated compounds settle into a rather wide range from 485 nm for p-HOBDI-BF2 to 598 nm for p-diethylamino-BDI-dimethylamino-ethenyl-BF2.

Data set [2] in a line: Quantum yield of fluorescence. In kind it is physicochemical. The method, then: as §1
The compounds p-NH2-BDI-BF2, p-HOBDI-BF2 (anionic form), di-Fp-HOBDI-BF2 (anionic form), p-diethylamino-BDI-dimethylaminoethenyl-BF2, p-HOBDI-dimethylaminoethenyl-BF2 (anionic form) have rather high quantum yields of fluorescence in water solutions.

For data set [3] the following is noted: cited from earlier work; for emission peak: widely used fluorescent dyes, approximate values.
Data set [4] is described as follows: Determination of solubility in water. As to conditions: thermodynamic from solid. In kind it is physicochemical. The method, then: To determine the solubility in water of compounds an excess amount of analyzed substance was put in a known volume of a solvent and stirred for 5 hours at r.t. The obtained mixture was centrifuged, and the concentration of a compound in mother liquor was measured with spectrophotometric method on the base of molar extinction coefficients data.

A short description of data set [5]: Photoacidity: acidity constants of ground and excited states. In kind it is physicochemical. From the text: Photoacidity is an ability to dissociate with formation of H^+ ion under the action of visible light. Photoacidity is characterized by constants of acidity of ground and excited states. Förster's equation describes the relationship between acidity constants of ground and excited states and energy of transfer between the states.
For compounds of the formula I, containing phenolic OH-group, high photoacidity—an ability to dissociate with formation of H^+ ion under the action of visible light—is a distinctive feature. […] (^1)((Z)-4-(2-(difluoroboryl)-3,5-difluoro-4-hydroxybenzylidene)-1,2-dimethyl-1H-imidazole-5(4H)-one)

Setting [6] is: water, neutral form line, starred: only emission of deprotonated form can be measured due to high photoacidity.
Setting [7] is: acidic and neutral pH values, r.t.
[8] abbreviates: acidic and neutral values of pH.

≈ marks a conversion by molar mass, not a printed value. Where two headings read alike, the source gives them in different places. Marks after values point to notes of the source that are not given here. A value given as a limit tells only on which side of the number the result lay.

On to `CCN(CC)c1ccc(/C=C2N=C(/C=C/N(C)C)N(C)C\2=O)c(B(F)F)c1` [(Z)-4-(4-(diethylamino)-2-(difluoroboryl)benzylidene)-2-((E)-2-(dimethylamino)vynil)-1-methyl-1H-imidazole-5(4H)-one], for which the “shift of emission and absorption spectra with change of more polar solvent (water) to less polar (ethanol, acetonitrile)” value in data set [1] is on record as “hypsochromic shift”. For the same compound, the Abs. peak worked out at 510 nm in data set [1] (acetonitrile), 525 nm in data set [1] (ethanol) and 525 nm in data set [1] (water). The Emis. peak in data set [1] (acetonitrile) came out at 583 nm; in data set [1] (ethanol) it was 588 nm; in data set [1] (water), 598 nm. Besides, in data set [2] (water), the “Quantum yield of fluorescence” value amounted to 0.35.
Regarding `O=C1NC=N/C1=C\c1cccn1B(F)F` [(Z)-4-((1-(difluoroboryl)-1H-pyrrol-2-yl)methylene)-1H-imidazole-5(4H)-one], the “Quantum yield of fluorescence” value in data set [3] (comparison values for known fluorophores) is listed as 0.81.
For the compound `CCN1C(=CC=CC2=[N+](CCCCCC(=O)O)c3ccc(S(=O)(=O)O)cc3C2(C)C)C(C)(C)c2cc(S(=O)(=O)[O-])ccc21` [Cy3], the emission peak in data set [3] is reported as 570 nm.
For `CCCCCCCCCCCCCCCCCCN1/C(=C\C=C\c2oc3ccccc3[n+]2CCCCCCCCCCCCCCCCCC)Oc2ccccc21.[O-][Cl+3]([O-])([O-])[O-]` [DiO], the emission peak in data set [3] is 501 nm.
In the case of `CC1=N/C(=C\c2cc(F)c(O)cc2B(F)F)C(=O)N1C` [F-p-HOBDI-BF2, (Z)-4-(2-(difluoroboryl)-5-fluoro-4-hydroxybenzylidene)-1,2-dimethyl-1H-imidazole-5(4H)-one], the Abs. peak in data set [1] (acetonitrile, anionic form) is 522 nm; in data set [1] (acetonitrile, neutral form), 397 nm; in data set [1] (ethanol, anionic form), 505 nm; in data set [1] (ethanol, neutral form) it was 408 nm; in data set [1] (water, anionic form), 478 nm; in data set [1] (water, neutral form), 392 nm. Also, the Emis. peak in data set [1] (acetonitrile, anionic form) is given as 543 nm; in data set [1] (acetonitrile, neutral form), 468 nm; in data set [1] (ethanol, anionic form) it was 537 nm; in data set [1] (ethanol, neutral form) it was 482 nm; in data set [1] (water, anionic form), 528 nm; in data set [1] (setting [6]), 528* nm. The ext. coef. in data set [1] (acetonitrile, neutral form) amounted to 28000 M⁻¹ cm⁻¹; in data set [1] (ethanol, anionic form), 48000 M⁻¹ cm⁻¹; in data set [1] (ethanol, neutral form), 24000 M⁻¹ cm⁻¹; in data set [1] (water, anionic form) it was 38300 M⁻¹ cm⁻¹; in data set [1] (water, neutral form) it was 31500 M⁻¹ cm⁻¹. The entries for the “shift of emission and absorption spectra with change of more polar solvent (water) to less polar (ethanol, acetonitrile)” value in data set [1] (anionic form) and in data set [1] (neutral form) were “bathochromic shift” and “hypsochromic shift”, respectively. In addition, the figures for the solubility at 5 h in data set [4] (setting [7]) and in data set [4] (setting [8]) were approximately 1000 µM (≈ 282 µg/mL) and 1 µM (≈ 0.282 µg/mL), respectively.
With `O=C1OC2(c3ccc(O)cc3Oc3cc(O)ccc32)c2ccc(N=C=S)cc21` [FITC], the emission peak in data set [3] is given as 521 nm.
For `CC1=N/C(=C\c2cc(F)c(O)c(F)c2B(F)F)C(=O)N1C` [di-F-p-HOBDI-BF2, (Z)-4-(2-(difluoroboryl)-3,5-difluoro-4-hydroxybenzylidene)-1,2-dimethyl-1H-imidazole-5(4H)-one], the Abs. peak was 519 nm in data set [1] (acetonitrile, anionic form); 392 nm in data set [1] (acetonitrile, neutral form); 503 nm in data set [1] (ethanol, anionic form); 400 nm in data set [1] (ethanol, neutral form); 484 nm in data set [1] (water, anionic form); 400 nm in data set [1] (water, neutral form). Moreover, the Emis. peak in data set [1] (acetonitrile, anionic form) is 542 nm; in data set [1] (acetonitrile, neutral form), 460 nm; in data set [1] (ethanol, anionic form), 538 nm; in data set [1] (ethanol, neutral form line, starred: only emission of deprotonated form can be measured due to high photoacidity) it was 538* nm; in data set [1] (water, anionic form), 532 nm; in data set [1] (setting [6]) it was 532* nm. Moreover, the ext. coef. in data set [1] (acetonitrile, neutral form) amounted to 26000 M⁻¹ cm⁻¹; in data set [1] (ethanol, anionic form) it was 45000 M⁻¹ cm⁻¹; in data set [1] (ethanol, neutral form), 21000 M⁻¹ cm⁻¹; in data set [1] (water, anionic form), 44400 M⁻¹ cm⁻¹; in data set [1] (water, neutral form) it was 32000 M⁻¹ cm⁻¹. Further, the entries for the “shift of emission and absorption spectra with change of more polar solvent (water) to less polar (ethanol, acetonitrile)” value in data set [1] (anionic form) and in data set [1] (neutral form) were “bathochromic shift” and “hypsochromic shift”, respectively. Moreover, in data set [2] (water, anionic form), the “Quantum yield of fluorescence” value is 0.73. For the same compound, the solubility at 5 h in data set [4] (setting [7]) is approximately 1000 µM (≈ 300 µg/mL); in data set [4] (setting [8]) it was 1 µM (≈ 0.3 µg/mL). Further, the pKa in data set [5] (excited state) was less than 0; in data set [5] (ground state, phenol group) it was 5.2. Further, the “pKa*” value in data set [5] (excited state, listed as (Z)-4-(2-(difluoroboryl)-3,5-difluoro-4-hydroxybenzylidene)-1,2-dimethyl-1H-imid) is on record as “lies in the negative region”; in data set [5] (excited state, listed as diF-p-HOBDI-BF2), “in the range of negative values”.
Turning to `CC1=N/C(=C\c2ccc(O)cc2)C(=O)N1C` [p-HOBDI, (Z)-4-(4-hydroxybenzylidene)-1,2-dimethyl-1H-imidazole-5(4H)-one], the Quantum yield entry in data set [3] (p-HOBDI, from D. Mandal et al., J. Phys. Chem. B 108, 1102 (2004), spans water, ethanol, acetonitrile columns) was “Quantum yield is less than 10^−4”.
On to `CN(C)/C=C/C1=NC(=C\c2ccc(O)cc2B(F)F)/C(=O)N1C` [p-HOBDI-dimethylaminoethenyl-BF2, (Z)-4-(2-(difluoroboryl)-4-hydroxybenzylidene)-2-((E)-2-(dimethylamino)vynil)-1-methyl-1H-imidazole-5(4H)-one], for which the Abs. peak in data set [1] (acetonitrile, anionic form) worked out at 555 nm; in data set [1] (acetonitrile, neutral form), 444 nm; in data set [1] (ethanol, anionic form), 529 nm; in data set [1] (ethanol, neutral form) it was 450 nm; in data set [1] (water, anionic form), 502 nm; in data set [1] (water, neutral form), 467 nm. The Emis. peak in data set [1] (acetonitrile, anionic form) is 598 nm; in data set [1] (acetonitrile, neutral form), 502 nm; in data set [1] (ethanol, anionic form), 587 nm; in data set [1] (ethanol, neutral form) it was 505 nm; in data set [1] (water, anionic form), 570 nm; in data set [1] (water, neutral form), 521 nm. In addition, the “shift of emission and absorption spectra with change of more polar solvent (water) to less polar (ethanol, acetonitrile)” value is listed as “bathochromic shift” in data set [1] (anionic form) and “hypsochromic shift” in data set [1] (neutral form). For the same compound, the “Quantum yield of fluorescence” value in data set [2] (water, anionic form) was 0.27.
`CC1=N/C(=C\c2ccc(N)cc2B(F)F)C(=O)N1C` [p-NH2-BDI-BF2, (Z)-4-(4-amino-2-(difluoroboryl)benzylidene)-1,2-dimethyl-1H-imidazole-5(4H)-one]: the “shift of emission and absorption spectra with change of more polar solvent (water) to less polar (ethanol, acetonitrile)” value in data set [1] is on record as “hypsochromic shift”. Besides, the results for the Abs. peak in data set [1] (acetonitrile), in data set [1] (ethanol) and in data set [1] (water) were 451 nm, 476 nm and 475 nm, respectively. The Emis. peak worked out at 518 nm in data set [1] (acetonitrile), 532 nm in data set [1] (ethanol) and 532 nm in data set [1] (water). The “Quantum yield of fluorescence” value is given as 0.62 in data set [2] (acetonitrile), 0.64 in data set [2] (ethanol) and 0.70 in data set [2] (water).
Consider `CC1=N/C(=C\c2ccc(N(C)C)cc2B(F)F)C(=O)N1C` [p-dimethylamino-BDI-BF2, (Z)-4-(4-(dimethylamino)-2-(difluoroboryl)benzylidene)-1,2-dimethyl-1H-imidazole-5(4H)-one], for which the “shift of emission and absorption spectra with change of more polar solvent (water) to less polar (ethanol, acetonitrile)” value in data set [1] is “hypsochromic shift”. In addition, the Abs. peak in data set [1] (acetonitrile) stood at 483 nm; in data set [1] (ethanol), 498 nm; in data set [1] (water) it was 507 nm. Further, the Emis. peak in data set [1] (acetonitrile) was 551 nm; in data set [1] (ethanol), 557 nm; in data set [1] (water) it was 565 nm. In addition, the entries for the “Quantum yield of fluorescence” value in data set [2] (acetonitrile), in data set [2] (ethanol) and in data set [2] (water) were 0.49, 0.31 and 0.05, respectively.

Source of the values: patent US9133220B2, “Boron-containing 5-arylidene-3,5-dihydro-4H-imidazol-4-ones” (Evrogen Joint Stock Company, priority 2012, dated 2015).
